Test results taken from US20090306035A1, “Compounds and Methods for modulating the Silencing of a Polynucleotide of Interest” (Emory University, priority 2005, published 2009).

Columns and labels:
Format in all cases: cell-based
[1] = system: miR-30a-3p; assay: miRNA sensor (Luc-T30 reporter with miR-30a-3p target sites), dual luciferase assay of HepG2 cells; conditions: reporter with miR-30 target sequence, endogenously expressed miR-30, FIG. 7
Method: In FIG. 6, top left panel, the blue arrowheads in Luc-T30 indicate artificial target sequence against miR-30a-3p. Luc-AT30 has an artificial sequence complementary to that in Luc-T30. […] Relative luciferase activity was calculated by dividing the reporter (Firefly) luciferase activity with co-transfected Renilla luciferase activity. Luciferase activity was decreased by transfecting Luc-T30 in HepG2 (orange bars) without changes in the amount of its mRNA (blue bars). Error bars represent the standard deviation (SD) of three triplicate experiments. […] Error bars represent the standard deviation (SD) from three triplicate experiments. **P=0.004; *****P=0.00001.
This reporter contains the target sequence of miR-30. In the miR-30 system, the endogenously expressed miR-30 was used and, in this cell line, miR-30 has been processed completely. Thus, the addition of enoxacin had no effect.

[2] = system: shRNA against Luciferase mRNA; assay: GL-3 luciferase reporter transfected into cells expressing shRNA against Luciferase mRNA; conditions: GL-3 luciferase plus shLuc, FIG. 5
Description: In this example, a luciferase reporter construct GL-3 was transfected into the cells expressing shRNA against Luciferase mRNA.

[3] = system: siRNA-mediated mRNA degradation and gene knock-down (GFP siRNA); assay: GFP reporter screen: 293 cells stably expressing GFP and an siRNA hairpin against GFP; conditions: human 293 cells, GFP reporter with siRNA hairpin against GFP; Spectrum Collection screen
Method: FIG. 2 discloses one embodiment of the cell-based reporter system of the invention. In this example, a human 293-cell line stably expressing a reporter gene, GFP, was used. This cell line was further transfected with a construct that expresses siRNA hairpin against GFP, which can decrease the level of GFP expression. Individual clones were isolated with greatly (although not completely) reduced GFP expression.
Using the above-identified clones, a screen was performed using The Spectrum Collection (MicroSource Discovery Systems, Inc., Gaylordsville, Conn., United States of America), which contains 2000 biologically active and structurally diverse compounds from libraries of known drugs, experimental bioactives, and pure natural products. For example, in one embodiment, a pilot screen of this library identified one inhibitor and one enhancer of siRNA-mediated mRNA degradation.
To identify the chemical compounds that modulate the siRNA and miRNA pathway, a screening strategy was used. A human 293-cell line stably expressing a reporter gene, GFP, was used. This cell line was further transfected with a construct that expresses siRNA hairpin against GFP, which could knock down the expression of GFP. […]

COc1cc(C(=O)NCc2ccc(OCCN(C)C)cc2)cc(OC)c1OC [RNAi-I]
miRNA-mediated translational suppression [1]: released the miRNA-mediated translational suppression

O=C(O)c1cn(C2CC2)c2cc(N3CCNCC3)c(F)cc2c1=O [ciprofloxacin]
knock-down efficiency of shRNA against luciferase mRNA (relative luciferase activity) [2]: enhance siRNA-mediated mRNA degradation
knock-down efficiency of shRNA against luciferase mRNA (relative luciferase activity) ([2]; listed as ciproflaxin): increased the knock-down efficiency

COc1cc(C(=O)NCc2ccc(OCCN(C)C)cc2)cc(OC)c1OC [trimethobenzamide]
effect on siRNA-mediated mRNA degradation and gene knock-down [3]: inhibit siRNA-mediated mRNA degradation and gene knock-down

CCn1cc(C(=O)O)c(=O)c2cc(F)c(N3CCNCC3)nc21 [enoxacin]
effect on siRNA-mediated mRNA degradation and gene knock-down [3]: enhance siRNA-mediated mRNA degradation and gene knock-down
knock-down efficiency of shRNA against luciferase mRNA (relative luciferase activity) [2]: increased the knock-down efficiency
miRNA-mediated translational suppression [1]: no effect
